The values below come from patent US20180369230A1, “TARGETED SELECTION OF PATIENTS FOR TREATMENT WITH SPECIFIC CORTISTATIN DERIVATIVES” (President and Fellows of Harvard College, priority 2015, published 2018).

One experiment deals with RUNX1 target genes. As to the kind of experiment: Determination of gene expression levels. The note with it: SET-2, MOLM-14 and MV4;11. The format is cell-based, human. As to the method:
Leukemia cells were plated (12-well) in triplicate at 500,000-800,000 cells per ml and incubated in the presence of vehicle (0.1% DMSO) or CA (25 nM 3 h for K562, MOLM-14 and MV4;11; 10 nM 24 h for MOLM-14; 25 nM 4 h for SET-2, n=3 for each cell line). Cells were then washed twice with cold PBS, and snap frozen. RNA was isolated (RNeasy Plus Microkit, Qiagen or TRIzol, Life Technologies), processed, and, for K562, MOLM-14 and MV4;11, hybridized to the Human U133 Plus 2.0 microarray (Affymetrix). Microarrays were processed with Bioconductor packages affyQCReport for quality control and affy for background correction, summarization, and normalization using rma. […] SET-2 and HCT 116 gene expression was measured by RNA-seq. […] Reads were aligned in two passes, first with rnaStar (v.2.3.0e) then with BWA (v.0.7.5a) for remaining unmapped reads, both using default parameters. Mapped reads were merged and counted using HTSeq (v.0.5.3p3) with -s yes -m intersection-strict. […] Samples were run in a single lane on an Illumina HiSEQ 2000 sequencer with a single read flow cell using 1×50-bp reads and a 6-cycle index read. Reads were mapped to the hg19 reference genome using Tophat2 v.2.0.6 with custom settings including the setting of -library-type fr- firstrand to appropriately account for the stranded nature of the protocol. […]

The next experiment deals with MV4;11-mCLP leukemia. The experiment can be described thus: MV4;11 xenograft model. The format is in vivo, mice. As to the method:
The MV4;11 xenograft model was performed as previously described (Etchin, J. et al. Antileukemic activity of nuclear export inhibitors that spare normal hematopoietic cells. Leukemia 27, 66-74 (2013)). Two-million MV4;11-mCLP cells were injected into the tail vein of 7-week-old female non-obese diabetic-severe combined immuno-deficient (NOD-SCID)Il2rg^−/− (NSG) mice (The Jackson Laboratory) and tumour burden was assessed by bioluminescence imaging (BLI) using an IVIS Spectrum system (Caliper Life Sciences). Seven days after injection, leukaemia establishment was documented by BLI and mice were assigned to groups to achieve a similar mean BLI and treated intraperitoneally with vehicle (20% hydroxypropyl-β-cyclodextrin) or CA once daily for 15 days. After 30 days, blood counts were obtained (Hemavet 950 F, Drew Scientific) and spleen, femur and peripheral blood cells were collected and analysed by flow cytometry (LSR Fortessa, BD Biosciences) from three mice per group, having the highest, lowest and median BLI value. […]
(§1) Samples from all organs were then dissected and placed in nine cassettes per mouse. […] Survival was measured as the time from therapy initiation until moribund state. […]
as §1

The subject of experiment [1] is ruxolitnib persistence cells. As to the kind of experiment: Growth inhibition in ruxolitinib persistent cells. The format is cell-based. The note with it: FIG. 5 legend; read-out: G150 in ruxolitnib persistence cells.
A further experiment relates to RUNX1. The experiment can be described thus: RUNX1 recruitment to genomic loci. The format is cell-based. The conditions noted are these: FIG. 11.
The test system of the next experiment is SET-2 cells. The experiment can be described thus: SET-2 differentiation assay. The format is cell-based. The note with it: 50 nM, 3 days, flow cytometry. As to the method:
For the SET-2 differentiation assay, cells were plated (6-well) in triplicate at 150,000 cells per ml for 3-days with 50 nM CA, 50 ng ml^−1 PMA (positive control), or vehicle. Cell pellets were collected at 4° C., washed three times with cold PBS, and stained with anti-CD61-PE (ab91128) or anti-CD41-PerCP (ab134373) and analyzed by flow cytometry. For each experiment, n=3 biological replicates with two independent experiments and one shown (FIG. 3).
For orientation: Flow cytometry measures light scatter and fluorescence of single cells or particles in a stream.

In the next experiment the test system is K562. As to the kind of experiment: Cellular proliferation assay. The format is cell-based. As to the method: All suspension cells were plated (96-well) in triplicate at 5,000-30,000 cells per well for testing (n=3). Viable cell number was estimated after 3, 7 and 10 days by counting viable cells from one vehicle well, generating a cell dilution series, transferring […] per well in duplicate to a 384-well plate, and performing a linear regression to CellTiter-Glo (Promega) response (SPECTRAmax M3, Molecular Devices). Cells from all wells were also fourfold diluted in media and transferred in duplicate for CellTiter-Glo measurement. On days 3 and 7, an equal volume for all wells was split-back with fresh media and compound, such that the resulting cell density for the vehicle well matched the initial seeding density. For days 7 and 10, estimated cell number represents the split-adjusted theoretical cell number. HCT116 were plated (96-well) in triplicate at 250 cells per well. Cells were incubated in the presence of vehicle, 1 μM paclitaxel, or compound. On day 7, CellTiter-Blue (Promega) response was measured and values were normalized to vehicle (100% growth) and paclitaxel (0% growth). For growth assays with inhibitors, n=3 for each concentration with two independent experiments.

As a reminder, the GI50 is the concentration that inhibits growth by half. Higher therefore signals less potent growth inhibition. For the substance Cortistatin A, the “expression of RUNX1 target genes including CEBPA, IRF8 and NFE2” value in the experiment on RUNX1 target genes is reported as “upregulated”. In addition, the “leukemia cells in the lungs (haematoxylin and eosin staining)” value with MV4;11-mCLP leukemia (MV4;11 AML mice, Day 30, vs vehicle) was “fewer leukemia cells in the lungs”. Also, in the experiment with MV4;11-mCLP leukemia (NSG mice, disseminated MV4;11-mCLP leukemia, once daily IP for 15 days, 15 days after stopping treatment), the spleen weight result is recorded as “prevents spleen weight increase”. For the same substance, the IC50 was 2 to 10 nM in experiment [1] and more than 1000 nM in the experiment on K562 (K562 (BCR-Abl), erythroleukemia, 10-day treatment, read-out: G150 after 10 days of treatment). Also, in the experiment with RUNX1, the “RUNX1 recruitment to loci” value is recorded as “recruited”. Besides, the “differentiation, megakaryocytic markers CD41 and CD61” value in the experiment with SET-2 cells was “induces differentiation”. In addition, in the experiment on K562 (K562, CML/Erythroleukemia, BCR-ABL), the GI50 was more than 1000 nM.
